Assay [1] has as its system HCT116 (colorectal carcinoma, K Ras G13D) cells. As to the kind of experiment: Cell proliferation (Alamar Blue) assay, HCT116. In kind it is cell-based, human. In outline:
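5000 cells/well, 16-24 h attach; cpd 0.0005-10 uM (3-fold dilns) x 72 h, 37° C./5% CO2; Alamar Blue 1× 1-3 h; fluor 540/590 nm; IC50, variable-slope sigmoid.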
A general note: Alamar Blue is a resazurin reagent that responds to reducing activity.

Assay [2] deals with phosphorylation of RSK1(S380) (the downstream target of ERK1/2). Kind of assay: Phospho-RSK1(S380) ELISA assay in HT-29 cells. The conditions noted are these: phospho-RSK1(S380), read-out: Mechanistic Cell Assay RSK1 Phos HT29 IC50. In kind it is cell-based, human. The method, then: Phospho-RSK1(S380) ELISA Assay
HT-29 cells (colorectal carcinoma, B-RafV600E); obtained from ATCC, USA) were seeded (60,000 cells/well) in a 96-well plate and incubated at 37° C./5% CO2 overnight and then treated with desired compound dilutions for 2 h. Medium was removed and cells were rinsed once with ice-cold 1×PBS, then 0.070 mL ice-cold 1× cell lysis buffer containing 1 mM PMSF was added to each well and the plate was incubated on a shaker for 2 h and 30 min at 4° C. The plate was then centrifuged for 20 min (×4000 rpm) at 4° C. and the supernatant was transferred to a new plate. Cell lysates were diluted with sample diluent at a ratio of 1:1. The ELISA was then carried out following the manufacturer's protocol (PathScan® phospho-RSK1(Ser380) Sandwich ELISA Kit, Cell Signaling Technologies). The plate was read at 450 nm within 30 min after adding STOP solution. The IC50 values were subsequently determined using a sigmoidal dose-response curve (variable slope) in GraphPad Prism® 5 software.
In general terms: ELISA stands for enzyme-linked immunosorbent assay.

[3] abbreviates: Homo sapiens, HCT-116, HCT116 cells.
Setting [4] is: Homo sapiens, HT-29, HT29 cells.

Read-outs that look alike come from different tables or passages of the source.

The IC50 is the concentration at which inhibition is half-maximal. `Cc1cnc(NC2CCOCC2)nc1-n1cnc(C(=O)NC(CN)c2cccs2)c1` (stereo not drawn) [Example 267, N-(2-amino-1-(thiophen-2-yl)ethyl)-1-(5-methyl-2-((tetrahydro-2H-pyran-4-yl)amino)pyrimidin-4-yl)-1H-imidazole-4-carboxamide]: the IC50 in assay [1] (setting [3]) and in assay [2] (setting [4]) was 100 to 250 nM throughout. On to `Cc1cnc(NC2CCOc3ccccc32)nc1-n1cnc(C(=O)N[C@H](CO)c2cccc(Cl)c2)c1` (stereo partly drawn) [Example 247, N-((S)-1-(3-chlorophenyl)-2-hydroxyethyl)-1-(2-(chroman-4-ylamino)-5-methylpyrimidin-4-yl)-1H-imidazole-4-carboxamide], for which the values for the IC50 in assay [1] (setting [3]) and in assay [2] (setting [4]) were more than 2500 nM and not above 100 nM, respectively.

As to `Cc1cnc(NC(CO)CO)nc1-n1cnc(C(=O)N[C@H](CO)c2cccc(Cl)c2)c1` [Example 260, (S)-N-(1-(3-chlorophenyl)-2-hydroxyethyl)-1-(2-((1,3-dihydroxypropan-2-yl)amino)-5-methylpyrimidin-4-yl)-1H-imidazole-4-carboxamide], the IC50 in assay [1] (setting [3]) and in assay [2] (setting [4]) was more than 2500 nM each time.

On to `Cc1cnc(NC2COC2)nc1-n1cnc(C(=O)N[C@H](CN)c2cccc(Cl)c2)c1` [Example 268, (S)-N-(2-amino-1-(3-chlorophenyl)ethyl)-1-(5-methyl-2-(oxetan-3-ylamino)pyrimidin-4-yl)-1H-imidazole-4-carboxamide], for which the IC50 in assay [1] (setting [3]) and in assay [2] (setting [4]) was not above 100 nM throughout. As for `Cc1cnc(N[C@@H]2CCOC2)nc1-n1cnc(C(=O)N[C@H](CO)c2cccc(Cl)c2)c1` [Example 265, N-((S)-1-(3-chlorophenyl)-2-hydroxyethyl)-1-(5-methyl-2-(((R)-tetrahydrofuran-3-yl)amino)pyrimidin-4-yl)-1H-imidazole-4-carboxamide], the values for the IC50 in assay [1] (setting [3]) and in assay [2] (setting [4]) were 100 to 250 nM and 250 to 500 nM, respectively. Take `Cc1cnc(NC2CCOc3ccccc32)nc1-n1cnc(C(=O)N[C@H](CN)c2cccc(Cl)c2)c1` (stereo partly drawn) [Example 271, N-((S)-2-amino-1-(3-chlorophenyl)ethyl)-1-(2-(chroman-4-ylamino)-5-methylpyrimidin-4-yl)-1H-imidazole-4-carboxamide]: the IC50 in assay [1] (setting [3]) and in assay [2] (setting [4]) was not above 100 nM each time. Consider `Cc1cnc(Nc2ccc(Oc3ccccc3)cc2)nc1-n1cnc(C(=O)N[C@H](CO)c2cccc(Cl)c2)c1` (stereo in doubt) [Example 250, N-(1-(3-chlorophenyl)-2-hydroxyethyl)-1-(5-methyl-2-((4-phenoxyphenyl)amino)pyrimidin-4-yl)-1H-imidazole-4-carboxamide], for which the IC50 in assay [1] (setting [3]) was more than 2500 nM; in assay [2] (setting [4]), 500 to 2500 nM. In the same order, the values of `Cc1cnc(Nc2ccc(F)cc2Cl)nc1-n1cnc(C(=O)N[C@H](CO)c2cccc(Cl)c2)c1` [Example 241, (S)-1-(2-((2-chloro-4-fluorophenyl)amino)-5-methylpyrimidin-4-yl)-N-(1-(3-chlorophenyl)-2-hydroxyethyl)-1H-imidazole-4-carboxamide] are more than 2500 nM and 250 to 500 nM. For the molecule `O=C(NC(CO)c1cccc(Cl)c1)c1ccn(-c2ccnc(NC3CCNC3)c2)c1` (stereo not drawn) [Example 145, N-(1-(3-chloro-phenyl)-2-hydroxy-ethyl)-1-(2-(pyrrolidin-3-ylamino)pyridin-4-yl)-1H-pyrrole-3-carboxamide], the IC50 in assay [2] (setting [4]) is more than 2500 nM. Turning to `Cc1cnc(NC2CCOCC2)nc1-n1cnc(C(=O)NCc2ccccc2CCO)c1` [Example 243, N-(2-(2-hydroxyethyl)benzyl)-1-(5-methyl-2-((tetrahydro-2H-pyran-4-yl)amino)pyrimidin-4-yl)-1H-imidazole-4-carboxamide], the IC50 is more than 2500 nM in assay [1] (HCT116 cells) and 500 to 2500 nM in assay [2] (setting [4]). Take `Cc1cnc(NC2CC(F)(F)C2)nc1-n1cnc(C(=O)NCc2cccc(Cl)c2CO)c1` [Example 273, N-(3-chloro-2-(hydroxymethyl)benzyl)-1-(2-((3,3-difluorocyclobutyl)amino)-5-methylpyrimidin-4-yl)-1H-imidazole-4-carboxamide]: the IC50 in assay [1] (setting [3]) is not above 100 nM; in assay [2] (setting [4]), 100 to 250 nM. Consider `Cc1cccc(C(CO)NC(=O)c2cn(-c3nc(NC4CCOCC4)ncc3C)cn2)c1` (stereo not drawn) [Example 238, N-(2-hydroxy-1-(m-tolyl)ethyl)-1-(5-methyl-2-((tetrahydro-2H-pyran-4-yl)amino)pyrimidin-4-yl)-1H-imidazole-4-carboxamide], for which the IC50 in assay [1] (setting [3]) was 500 to 2500 nM; in assay [2] (setting [4]), 250 to 500 nM. In the case of `Cc1cnc(NC2CCOCC2)nc1-n1cnc(C(=O)N[C@H](CO)c2cc(F)cc(Cl)c2)c1` [Example 295, (S)-N-(1-(3-chloro-5-fluorophenyl)-2-hydroxyethyl)-1-(5-methyl-2-((tetrahydro-2H-pyran-4-yl)amino)pyrimidin-4-yl)-1H-imidazole-4-carboxamide], in assay [2] (setting [4]), the IC50 was not above 100 nM. Regarding `CC(=O)NCC(NC(=O)c1ccn(-c2cc(Nc3ccc(F)cc3)ncc2C)c1)c1ccccc1` (stereo not drawn) [Example 135, N-(2-acetamido-1-phenylethyl)-1-(2-((4-fluorophenyl)-amino)-5-methyl-pyridin-4-yl)-1H-pyrrole-3-carboxamide], in assay [2] (setting [4]), the IC50 fell in the range of 500 to 2500 nM.

Turning to `Cc1cnc(NC2CCOCC2)nc1-n1cnc(C(=O)NCc2ccccc2CCO)c1` [Example 94, N-(2-(2-hydroxy-ethyl)benzyl)-1-(5-methyl-2-((tetrahydro-2H-pyran-4-yl)amino)pyrimidin-4-yl)-1H-imidazole-4-carboxamide], the IC50 in assay [1] (HCT116 cells) and in assay [2] (HT29 cells) was 500 to 2500 nM in each case. Turning to `Cc1cnc(NC2CCOCC2)nc1-n1cnc(C(=O)NC(CO)c2ccc(Cl)s2)c1` (stereo not drawn) [Example 257, N-(1-(5-chlorothiophen-2-yl)-2-hydroxyethyl)-1-(5-methyl-2-((tetrahydro-2H-pyran-4-yl)amino)pyrimidin-4-yl)-1H-imidazole-4-carboxamide], the IC50 in assay [1] (setting [3]) was more than 2500 nM; in assay [2] (setting [4]) it was 250 to 500 nM.

Consider `Cc1cnc(NC2CC(F)(F)C2)nc1-n1cnc(C(=O)NC(CN)c2cc(F)cc(Cl)c2)c1` (stereo not drawn) [Example 278, N-(2-amino-1-(3-chloro-5-fluorophenyl)ethyl)-1-(2-((3,3-difluorocyclobutyl)amino)-5-methylpyrimidin-4-yl)-1H-imidazole-4-carboxamide], for which the IC50 in assay [1] (setting [3]) and in assay [2] (setting [4]) was not above 100 nM in each case. `Cc1cnc(NC2CCOCC2)nc1-n1cnc(C(=O)NCc2ccccc2C(C)(C)O)c1` [Example 293, N-(2-(2-hydroxypropan-2-yl)benzyl)-1-(5-methyl-2-((tetrahydro-2H-pyran-4-yl)amino)pyrimidin-4-yl)-1H-imidazole-4-carboxamide]: the IC50 in assay [1] (setting [3]) and in assay [2] (setting [4]) was 500 to 2500 nM throughout.

`Cc1cnc(NC2CCOC(C)C2)nc1-n1cnc(C(=O)N[C@H](CO)c2cccc(Cl)c2)c1` (stereo partly drawn) [Example 251, N-((S)-1-(3-chlorophenyl)-2-hydroxyethyl)-1-(5-methyl-2-((2-methyltetrahydro-2H-pyran-4-yl)amino)pyrimidin-4-yl)-1H-imidazole-4-carboxamide]: the figures for the IC50 in assay [1] (setting [3]) and in assay [2] (setting [4]) were 250 to 500 nM and not above 100 nM, respectively. Taken in the same sequence, the figures for `Cc1cnc(N[C@@H]2CCOC2)nc1-n1cnc(C(=O)N[C@H](CN)c2cccc(Cl)c2)c1` [Example 264, N-((S)-2-amino-1-(3-chlorophenyl)ethyl)-1-(5-methyl-2-(((R)-tetrahydrofuran-3-yl)amino)pyrimidin-4-yl)-1H-imidazole-4-carboxamide] were 100 to 250 nM and not above 100 nM.

In the case of `Cc1cnc(Nc2ccc(F)cc2)cc1-n1cnc(C(=O)NC(CN)c2ccccc2)c1` (stereo not drawn) [Compound #191, N-(2-amino-1-phenylethyl)-1-(2-((4-fluorophenyl)amino)-5-methylpyridin-4-yl)-1H-imidazole-4-carboxamide], the IC50 in assay [2] (setting [4]) lay in the range of 100 to 250 nM. For `Cc1cnc(NC2CCOCC2)nc1-n1cnc(C(=O)NC(CO)c2ccsc2)c1` (stereo not drawn) [Example 234, N-(2-hydroxy-1-(thiophen-3-yl)ethyl)-1-(5-methyl-2-((tetrahydro-2H-pyran-4-yl)amino)pyrimidin-4-yl)-1H-imidazole-4-carboxamide], in assay [2] (setting [4]), the IC50 lay within 500 to 2500 nM. Turning to `Cc1cnc(Nc2ccc(F)cc2Cl)nc1-n1ccc(C(=O)N[C@H](CO)c2cccc(Cl)c2)c1` [Cmpd 29, (S)-1-(2-((2-chloro-4-fluorophenyl)-amino)-5-methyl-pyrimidin-4-yl)-N-(1-(3-chlorophenyl)-2-hydroxy-ethyl)-1H-pyrrole-3-carboxamide], the IC50 in assay [2] (setting [4]) was in the range of 250 to 500 nM. Regarding `Cc1cnc(NC2CCN(C)CC2)nc1-n1cnc(C(=O)N[C@H](CO)c2cccc(Cl)c2)c1` [Example 296, (S)-N-(1-(3-chlorophenyl)-2-hydroxyethyl)-1-(5-methyl-2-((1-methylpiperidin-4-yl)amino)pyrimidin-4-yl)-1H-imidazole-4-carboxamide], in assay [2] (setting [4]), the IC50 fell in the range of 500 to 2500 nM.

As for `Cc1cnc(NC2CCOCC2)nc1-n1cnc(C(=O)NCc2sccc2CN)c1` [Example 294, N-((3-(aminomethyl)thiophen-2-yl)methyl)-1-(5-methyl-2-((tetrahydro-2H-pyran-4-yl)amino)pyrimidin-4-yl)-1H-imidazole-4-carboxamide], the IC50 in assay [2] (setting [4]) was more than 2500 nM.

Source of the values: patent US11925629B2, “Heterocyclic inhibitors of ERK1 and ERK2 and their use in the treatment of cancer” (Asana Biosciences, LLC, priority 2015, dated 2024).
